As usually defined, the logD is the decadic logarithm of the distribution of all forms, ionised or not, between an organic phase and buffer at a given pH. Read a high logD as higher lipophilicity.

This data set is described as follows: method code SF-AS, from PMID: 4559156. To be noted: pH 7.4.
Turning to `CCN1CCNC1=Nc1ncc([N+](=O)[O-])s1`, the logD turned out to be 2.28.
As for `O=[N+]([O-])c1cnc(N=C2NCCN2CCO)s1`, the figure is 1.23; as for `O=[N+]([O-])c1cnc(N=C2NCCO2)s1`, 0.57.
For `CN1CCN=C1Nc1ncc([N+](=O)[O-])s1` the value was 1.8; for `O=[N+]([O-])c1cnc(N=C2NCC(O)CN2)s1` (stereo not given), 0.74; for `O=[N+]([O-])c1cnc(/N=C2/SCCN2CCO)s1`, 1.28.
For `CN1CCN(C)C1=Nc1ncc([N+](=O)[O-])s1` the value was 0.92; for `CN1CC(O)CN(C)C1=Nc1ncc([N+](=O)[O-])s1` (stereo not given), 0.16; for `O=[N+]([O-])c1cnc(/N=C2/OCCN2CCO)s1`, 0.43.
In turn, `CC1CNC(=Nc2ncc([N+](=O)[O-])s2)N1C` (stereo not given) came in with a logD of 2.02.
As for `CC1(C)NC(=Nc2ncc([N+](=O)[O-])s2)OC1(C)C`, the figure is 2.4.
In turn, `CC(=O)OCCN1CCS/C1=N/c1ncc([N+](=O)[O-])s1` had a logD of 1.88.
`CC1CN(C)C(=Nc2ncc([N+](=O)[O-])s2)N1` (stereo not given) showed a logD of 1.95. The logD values of the last two compounds are within 0.2 log units of each other.
As for `O=[N+]([O-])c1cnc(NC2=NCCN2)s1`, the figure is 1.38; as for `CC1N=C(Nc2ncc([N+](=O)[O-])s2)OC1(C)C` (stereo not given), 1.88.

For the origin of these results see the SangsterLogP compilation.
